ChEMBL document CHEMBL4373715, “Discovery and Biological Evaluations of Halogenated 2,4-Diphenyl Indeno[1,2-b]pyridinol Derivatives as Potent Topoisomerase IIα-Targeted Chemotherapeutic Agents for Breast Cancer” (J Med Chem, 2019)
The source made the active and inactive calls. No cut-off for these calls is given here.

Tests used:
[1] = Toxicity in male ICR mouse assessed as change in body weight at 50 to 100 mg/kg, iv administered as single dose measured daily for 7 days; assay type: organism-based; conditions: in vivo, 168 h
MDA-MB-231 [2] = experiment: Antitumor activity against human MDA-MB-231 cells expressing luciferase xenografted in mouse assessed as reduction in tumor weight at 12 mg/kg, iv administered once daily for 10 days measured 18 days post-last dose by bioluminescent imaging analysis; assay type: functional, organism-based
MDA-MB-231 [3] = experiment: Antitumor activity against human MDA-MB-231 cells expressing luciferase xenografted in mouse assessed as tumor growth inhibition at 12 mg/kg, iv administered once daily for 10 days measured on day 4 and 11 by bioluminescent imaging analysis; assay type: functional, organism-based
HCT-15 = experiment: Antiproliferative activity against human HCT15 cells measured after 72 hrs by EZ-Cytox assay; assay type: functional, cell-based; conditions: HCT-15, 72 h
T47D [4] = experiment: Antiproliferative activity against human T47D cells measured after 72 hrs by EZ-Cytox assay; assay type: functional, cell-based
DU-145 = experiment: Antiproliferative activity against human DU145 cells measured after 72 hrs by EZ-Cytox assay; assay type: functional, cell-based; conditions: DU-145, 72 h
[5] = biological target: DNA topoisomerase 2-alpha (Homo sapiens) (UniProt P11388); experiment: Inhibition of recombinant human topoisomerase 2alpha-mediated relaxation of supercoiled pBR322 DNA at 20 uM measured after 30 mins by ethidium bromide staining based agarose gel electrophoresis relative to control
Chain of DNA topoisomerase 2-alpha (Homo sapiens) (P11388 whole entry): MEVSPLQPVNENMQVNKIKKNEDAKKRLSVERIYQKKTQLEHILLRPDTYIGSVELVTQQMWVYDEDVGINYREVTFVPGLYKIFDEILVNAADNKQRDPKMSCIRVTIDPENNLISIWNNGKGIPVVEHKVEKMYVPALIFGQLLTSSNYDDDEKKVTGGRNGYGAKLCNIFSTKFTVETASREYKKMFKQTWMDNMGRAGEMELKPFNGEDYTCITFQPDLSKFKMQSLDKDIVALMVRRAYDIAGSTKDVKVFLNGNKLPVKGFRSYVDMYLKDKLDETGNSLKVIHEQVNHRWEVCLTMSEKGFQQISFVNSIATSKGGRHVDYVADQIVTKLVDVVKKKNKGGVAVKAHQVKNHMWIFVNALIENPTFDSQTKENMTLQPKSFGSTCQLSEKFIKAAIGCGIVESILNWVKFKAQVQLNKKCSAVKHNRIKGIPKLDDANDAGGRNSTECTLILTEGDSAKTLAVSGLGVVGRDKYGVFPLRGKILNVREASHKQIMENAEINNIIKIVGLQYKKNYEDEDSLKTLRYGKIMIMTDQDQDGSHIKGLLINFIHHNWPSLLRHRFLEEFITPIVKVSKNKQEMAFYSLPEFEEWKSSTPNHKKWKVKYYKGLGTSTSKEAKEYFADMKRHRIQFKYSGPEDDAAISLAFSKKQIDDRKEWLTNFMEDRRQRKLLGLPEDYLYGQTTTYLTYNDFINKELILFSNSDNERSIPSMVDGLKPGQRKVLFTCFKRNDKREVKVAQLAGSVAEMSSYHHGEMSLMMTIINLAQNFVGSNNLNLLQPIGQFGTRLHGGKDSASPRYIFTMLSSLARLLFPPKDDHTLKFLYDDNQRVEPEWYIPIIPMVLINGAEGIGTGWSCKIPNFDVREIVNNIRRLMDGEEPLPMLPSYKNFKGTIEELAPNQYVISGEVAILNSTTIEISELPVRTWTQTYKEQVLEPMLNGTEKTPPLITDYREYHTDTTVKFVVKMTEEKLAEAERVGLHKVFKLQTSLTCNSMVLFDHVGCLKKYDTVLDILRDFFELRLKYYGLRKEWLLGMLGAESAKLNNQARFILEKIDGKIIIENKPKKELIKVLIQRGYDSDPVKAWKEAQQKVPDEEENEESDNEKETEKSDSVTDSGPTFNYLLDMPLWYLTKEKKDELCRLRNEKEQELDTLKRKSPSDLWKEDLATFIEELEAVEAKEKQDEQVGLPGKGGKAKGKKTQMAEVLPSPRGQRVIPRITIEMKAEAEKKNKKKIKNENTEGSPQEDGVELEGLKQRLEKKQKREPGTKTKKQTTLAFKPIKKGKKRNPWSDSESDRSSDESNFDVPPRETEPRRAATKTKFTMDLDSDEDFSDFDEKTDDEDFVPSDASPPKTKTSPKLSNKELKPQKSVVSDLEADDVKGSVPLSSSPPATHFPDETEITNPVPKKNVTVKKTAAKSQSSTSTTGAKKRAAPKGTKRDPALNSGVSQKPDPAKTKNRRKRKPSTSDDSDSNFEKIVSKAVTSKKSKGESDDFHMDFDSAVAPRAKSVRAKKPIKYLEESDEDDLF

Calf thymus DNA = experiment: Inhibition of EtBr binding to calf thymus DNA up to 40 uM measured after 30 mins by fluorescence assay; assay type: nucleic-acid assay; conditions: Bos taurus
[6] = biological target: DNA topoisomerase 2-alpha (Homo sapiens) (UniProt P11388); experiment: Poison activity at recombinant human topoisomerase-2 alpha assessed as stabilization of enzyme-DNA cleavage complex by measuring linear DNA formation at 500 uM using supercoiled pBR322 DNA as substrate after 60 mins by agarose gel electrophoresis method
[7] = biological target: DNA topoisomerase 2-alpha (Homo sapiens) (UniProt P11388); experiment: Poison activity at topoisomerase-2 alpha in human T47D cells assessed as stabilization of enzyme-DNA cleavage complex by measuring reduction in topo-2alpha level at 50 uM measured after 2 hrs in presence of etoposide by Western blot analysis; assay type: cell-based
T47D [8] = experiment: Induction of DNA damage in human T47D cells at 5 to 10 uM measured after 24 hrs by comet assay; assay type: functional, cell-based
T47D [9] = experiment: Induction of apoptosis in human T47D cells assessed as increase in cleaved PARP expression at 10 to 30 uM measured after 24 hrs by Western blot analysis; assay type: functional, cell-based
T47D [10] = experiment: Induction of apoptosis in human T47D cells assessed as increase in Bax expression at 10 to 30 uM measured after 24 hrs by Western blot analysis; assay type: functional, cell-based
T47D [11] = experiment: Induction of apoptosis in human T47D cells assessed as decrease in bcl-2 expression at 10 to 30 uM measured after 24 hrs by Western blot analysis; assay type: functional, cell-based
[12] = Stability in mouse plasma assessed as parent compound remaining at 1 mM measured after 0.25 hrs by LC-MS/MS analysis; assay type: ADME, cell-free; conditions: read-out: Stability
[13] = Stability in mouse plasma assessed as parent compound remaining at 1 mM measured after 0.5 hrs by LC-MS/MS analysis; assay type: ADME, cell-free; conditions: 1000 µM
[14] = Stability in mouse plasma assessed as parent compound remaining at 1 mM measured after 1 hr by LC-MS/MS analysis; assay type: ADME, cell-free; conditions: read-out: Stability
[15] = Stability in mouse plasma assessed as parent compound remaining at 1 mM measured after 4 hrs by LC-MS/MS analysis; assay type: ADME, cell-free; conditions: 1000 µM
[16] = Stability in rat plasma assessed as parent compound remaining at 1 mM measured immediately by LC-MS/MS analysis; assay type: ADME, cell-free; conditions: read-out: Stability
[17] = Stability in rat plasma assessed as parent compound remaining at 1 mM measured after 0.25 hrs by LC-MS/MS analysis; assay type: ADME, cell-free; conditions: read-out: Stability
[18] = Stability in rat plasma assessed as parent compound remaining at 1 mM measured after 0.5 hrs by LC-MS/MS analysis; assay type: ADME, cell-free; conditions: read-out: Stability
[19] = Stability in rat plasma assessed as parent compound remaining at 1 mM measured after 1 hr by LC-MS/MS analysis; assay type: ADME, cell-free; conditions: read-out: Stability
[20] = Stability in rat plasma assessed as parent compound remaining at 1 mM measured after 2 hrs by LC-MS/MS analysis; assay type: ADME, cell-free; conditions: 1000 µM
[21] = Stability in human plasma assessed as parent compound remaining at 1 mM measured immediately by LC-MS/MS analysis; assay type: ADME, cell-free; conditions: read-out: Stability
[22] = Stability in human plasma assessed as parent compound remaining at 1 mM measured after 0.25 hrs by LC-MS/MS analysis; assay type: ADME, cell-free; conditions: read-out: Stability
[23] = Stability in human plasma assessed as parent compound remaining at 1 mM measured after 0.5 hrs by LC-MS/MS analysis; assay type: ADME, cell-free; conditions: read-out: Stability
[24] = Stability in human plasma assessed as parent compound remaining at 1 mM measured after 4 hrs by LC-MS/MS analysis; assay type: ADME, cell-free; conditions: read-out: Stability
[25] = Protein binding in mouse plasma assessed as unbound fraction at 1 mM measured immediately by LC-MS/MS analysis; assay type: ADME, cell-free
[26] = Protein binding in rat plasma assessed as unbound fraction at 1 mM measured immediately by LC-MS/MS analysis; assay type: ADME, cell-free
[27] = Protein binding in human plasma assessed as unbound fraction at 1 mM measured immediately by LC-MS/MS analysis; assay type: ADME, cell-free
[28] = Protein binding in mouse plasma assessed as unbound fraction at 1 mM measured after 1 hr by LC-MS/MS analysis; assay type: ADME, cell-free
[29] = Protein binding in rat plasma assessed as unbound fraction at 1 mM measured after 1 hr by LC-MS/MS analysis; assay type: ADME, cell-free
[30] = Protein binding in human plasma assessed as unbound fraction at 1 mM measured after 1 hr by LC-MS/MS analysis; assay type: ADME, cell-free
[31] = Half life in ICR mouse liver microsomes at 1 mM in presence of NADPH by LC-MS/MS analysis; assay type: ADME, Microsome
[32] = Half life in Sprague-Dawley rat liver microsomes at 1 mM in presence of NADPH by LC-MS/MS analysis; assay type: ADME, Microsome
[33] = Half life in human liver microsomes at 1 mM in presence of NADPH by LC-MS/MS analysis; assay type: ADME, Microsome
[34] = Toxicity in male ICR mouse assessed as physical abnormalities at 50 to 100 mg/kg, iv administered as single dose measured up to 7 days; assay type: organism-based; conditions: in vivo, 168 h
[35] = Toxicity in female ICR mouse assessed as physical abnormalities at 50 to 100 mg/kg, iv administered as single dose measured up to 7 days; assay type: organism-based; conditions: in vivo, 168 h
[36] = Toxicity in female ICR mouse assessed as change in body weight at 50 to 100 mg/kg, iv administered as single dose measured daily for 7 days; assay type: organism-based; conditions: in vivo, 168 h
[37] = Toxicity in male ICR mouse assessed as mortality at 100 mg/kg, iv administered as single dose measured daily for 7 days (reference value: 0%); assay type: organism-based; conditions: in vivo
[38] = Toxicity in female ICR mouse assessed as mortality at 50 mg/kg, iv administered as single dose measured daily for 7 days (reference value: 0%); assay type: organism-based; conditions: in vivo
MDA-MB-231 [39] = experiment: Antiproliferative activity against human MDA-MB-231 cells measured after 72 hrs by Ez-cytox assay; assay type: functional, cell-based; conditions: MDA-MB-231, 72 h
MDA-MB-436 = experiment: Antiproliferative activity against human MDA-MB-436 cells measured after 72 hrs by Ez-cytox assay; assay type: functional, cell-based; conditions: MDA-MB-436, 72 h

SMILES: Oc1ccc(-c2cc(-c3ccccc3Cl)nc3c2Cc2c(O)cccc2-3)cc1
- Activity [1]: Non-Toxic
- Activity (MDA-MB-231 [2]): Active
- TGI (MDA-MB-231 [3]): Active
- IC50 (HCT-15): 14 nM
- IC50 (T47D [4]): 2.67 nM
- IC50 (DU-145): 72 nM
- inhibition [5]: 78.9%
- inhibition (Calf thymus DNA): inactive
- Activity [6]: Active
- Activity [7]: Active
- Activity (T47D [8]): Active
- Activity (T47D [9]): Active
- Activity (T47D [10]): Active
- Activity (T47D [11]): Active
- remaining at 0.25 h [12]: 109%
- Stability [13]: 117.1%
- remaining at 1 h [14]: 110%
- Stability [15]: 130.8%
- remaining at 0 h [16]: 100%
- remaining at 0.25 h [17]: 102%
- remaining at 0.5 h [18]: 99.8%
- remaining at 1 h [19]: 111%
- Stability [20]: 119.6%
- remaining at 0 h [21]: 100%
- remaining at 0.25 h [22]: 98.7%
- remaining at 0.5 h [23]: 99.3%
- remaining at 4 h [24]: 105%
- fraction unbound at 0 h [25]: 1
- fraction unbound at 0 h [26]: 1
- fraction unbound at 0 h [27]: 1
- fraction unbound at 1 h [28]: 0.999
- fraction unbound at 1 h [29]: 1
- fraction unbound at 1 h [30]: 0.959
- half-life [31]: 2.61 h
- half-life [32]: 26 h
- half-life [33]: 6.53 h
- Activity [34]: Non-Toxic
- Activity [35]: Non-Toxic
- Activity [36]: Non-Toxic
- mortality at 168 h [37]: 0%
- mortality at 168 h [38]: 0%
- IC50 (MDA-MB-231 [39]): 2700 nM
- IC50 (MDA-MB-436): 2640 nM
